Test results as given in ChEMBL document CHEMBL1201862, “PubChem BioAssay data set” (2004).
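How tested: cells in 96-well plates exposed to compound for 48 hours at five concentrations. The concentration for 50% growth inhibition is given as GI50.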 Active and inactive are the calls of the source. Rule as the data show it: active = GI50 up to about 1.1 µM and inactive = higher.

Key:
Assay in all cases: growth of human tumour cells (NCI), 48 h
U-251 = test system: U-251
SW-620 = test system: SW-620
HL-60 = test system: HL-60
SF-268 = test system: SF-268
SF-295 = test system: SF-295
CAKI-1 = test system: CAKI-1
Malme-3M = test system: Malme-3M
HCT-15 = test system: HCT-15
HOP-62 = test system: HOP-62
SK-MEL-2 = test system: SK-MEL-2
HT-29 = test system: HT-29
TK-10 = test system: TK-10
OVCAR-8 = test system: OVCAR-8
ACHN = test system: ACHN
CCRF-CEM = test system: CCRF-CEM
UACC-257 = test system: UACC-257
NCI-H522 = test system: NCI-H522
SK-MEL-5 = test system: SK-MEL-5

Row | SMILES | GI50 (U-251) | GI50 (SW-620) | GI50 (HL-60) | GI50 (SF-268) | GI50 (SF-295) | GI50 (CAKI-1) | GI50 (Malme-3M) | GI50 (HCT-15) [µM] | GI50 (HOP-62) | GI50 (SK-MEL-2) | GI50 (HT-29) | GI50 (TK-10) | GI50 (OVCAR-8) | GI50 (ACHN) | GI50 (CCRF-CEM) | GI50 (UACC-257) | GI50 (NCI-H522) | GI50 (SK-MEL-5)
1 | O=C(CN1CCOCC1)Nc1nc(-c2ccc(Cl)cc2)cs1 | 24.2 µM (inactive) | 41.8 µM (inactive) | 17.3 µM (inactive) | 25.1 µM (inactive) | 25.8 µM (inactive) | 34.4 µM (inactive) | 23.1 µM (inactive) | 29.4 | 22.6 µM (inactive) | 26.5 µM (inactive) | 36.1 µM (inactive) | 34.4 µM (inactive) | 23.8 µM (inactive) | 25.1 µM (inactive) | 21.3 µM (inactive) | – | – | –
2 | CSCCOC(=O)C(=[N+]=[N-])c1ccc([N+](=O)[O-])cc1 | > 100 µM (inactive) | > 100 µM (inactive) | > 100 µM (inactive) | > 100 µM (inactive) | > 100 µM (inactive) | > 100 µM (inactive) | > 100 µM (inactive) | > 100 | > 100 µM (inactive) | > 100 µM (inactive) | > 100 µM (inactive) | > 100 µM (inactive) | > 100 µM (inactive) | > 100 µM (inactive) | > 100 µM (inactive) | > 100 µM (inactive) | > 100 µM (inactive) | –
3 | CCCC[C@H](CCc1ccccc1)N(C(=O)OC)N1CCC[C@H]1COC | 15.4 µM (inactive) | 16.3 µM (inactive) | 46.7 µM (inactive) | 19.5 µM (inactive) | 18.7 µM (inactive) | 29.9 µM (inactive) | 16.3 µM (inactive) | – | 23 µM (inactive) | 18.5 µM (inactive) | 15.1 µM (inactive) | 26.4 µM (inactive) | 27.5 µM (inactive) | 16.8 µM (inactive) | 15.5 µM (inactive) | 18 µM (inactive) | 14.1 µM (inactive) | 18.3 µM (inactive)
4 | O=C(O)C12C3C4C1C1C2C3C1(Br)C41OCCO1 (stereo unspecified) | > 100 µM (inactive) | > 100 µM (inactive) | > 100 µM (inactive) | > 100 µM (inactive) | > 100 µM (inactive) | – | > 100 µM (inactive) | – | > 100 µM (inactive) | > 100 µM (inactive) | > 100 µM (inactive) | > 100 µM (inactive) | > 100 µM (inactive) | > 100 µM (inactive) | > 100 µM (inactive) | > 100 µM (inactive) | > 100 µM (inactive) | > 100 µM (inactive)
5 | Nc1ccc(C(=O)NN2C(=O)C(Cl)C2c2cc(Br)ccc2O)cc1 (stereo unspecified) | 32.6 µM (inactive) | > 100 µM (inactive) | 30.1 µM (inactive) | 50.5 µM (inactive) | > 100 µM (inactive) | > 100 µM (inactive) | > 100 µM (inactive) | > 100 | > 100 µM (inactive) | – | 64.6 µM (inactive) | > 100 µM (inactive) | > 100 µM (inactive) | > 100 µM (inactive) | 62.1 µM (inactive) | > 100 µM (inactive) | 22.4 µM (inactive) | > 100 µM (inactive)
6 | CC(C)C(Nc1c2ccccc2[n+](C)c2ccccc12)C(=O)O (stereo unspecified) | > 100 µM (inactive) | > 100 µM (inactive) | 99.5 µM (inactive) | > 100 µM (inactive) | > 100 µM (inactive) | > 100 µM (inactive) | > 100 µM (inactive) | > 100 | > 100 µM (inactive) | > 100 µM (inactive) | > 100 µM (inactive) | > 100 µM (inactive) | > 100 µM (inactive) | > 100 µM (inactive) | – | > 100 µM (inactive) | 1.3 µM (inactive) | > 100 µM (inactive)
7 | CCCCC(N)CSSCC(N)CCCC (stereo unspecified) | – | 23.2 µM (inactive) | 16.4 µM (inactive) | 26.9 µM (inactive) | 33.3 µM (inactive) | – | 18.1 µM (inactive) | 26.2 | 27.3 µM (inactive) | 17.2 µM (inactive) | 23.7 µM (inactive) | > 100 µM (inactive) | 37.8 µM (inactive) | 34.4 µM (inactive) | 20.3 µM (inactive) | 20.5 µM (inactive) | 15 µM (inactive) | 22.9 µM (inactive)
8 | CCCc1nc(N)nc(C(=O)Nc2cccc(C(F)(F)F)c2)c1CC | > 100 µM (inactive) | > 100 µM (inactive) | > 100 µM (inactive) | > 100 µM (inactive) | > 100 µM (inactive) | > 100 µM (inactive) | > 100 µM (inactive) | > 100 | > 100 µM (inactive) | > 100 µM (inactive) | > 100 µM (inactive) | > 100 µM (inactive) | > 100 µM (inactive) | > 100 µM (inactive) | – | > 100 µM (inactive) | – | > 100 µM (inactive)
